Reference: PubChem BioAssay (NCI)
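Step 1: Grow cells in 96-well plates. Step 2: Expose to compound for 48 hours at 5 concentrations. Step 3: Interpolate endpoints linearly; if unreached, use highest concentration. TGI: concentration producing complete growth inhibition.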

Tests used:
Experiment in all cases: DTP human tumour cell line panel, 48 h
DU-145 prostate = test system: DU-145 prostate
IGROV1 ovarian = test system: IGROV1 ovarian
OVCAR-5 ovarian = test system: OVCAR-5 ovarian
NCI/ADR-RES ovarian = test system: NCI/ADR-RES ovarian
NCI-H226 lung = test system: NCI-H226 lung
NCI-H522 lung = test system: NCI-H522 lung
HCT-116 colon = test system: HCT-116 colon
UACC-257 melanoma = test system: UACC-257 melanoma
EKVX NSCLC = test system: EKVX NSCLC
MALME-3M melanoma = test system: MALME-3M melanoma
UACC-62 melanoma = test system: UACC-62 melanoma
U251 CNS = test system: U251 CNS
SF-268 CNS = test system: SF-268 CNS
SF-295 CNS = test system: SF-295 CNS
SF-539 CNS = test system: SF-539 CNS
K-562 leukemia = test system: K-562 leukemia
TK-10 renal = test system: TK-10 renal
NCI-H23 lung = test system: NCI-H23 lung
PC-3 prostate = test system: PC-3 prostate
OVCAR-4 ovarian = test system: OVCAR-4 ovarian
MDA-N = test system: MDA-N
T-47D breast = test system: T-47D breast
SNB-19 CNS = test system: SNB-19 CNS
OVCAR-8 ovarian = test system: OVCAR-8 ovarian
RXF 393 renal = test system: RXF 393 renal
SN12C renal = test system: SN12C renal
MDA-MB-231 breast = test system: MDA-MB-231 breast
SR leukemia = test system: SR leukemia
MDA-MB-435 = test system: MDA-MB-435
HCT-15 colon = test system: HCT-15 colon
HS 578T breast = test system: HS 578T breast
ACHN renal = test system: ACHN renal
UO-31 renal = test system: UO-31 renal
SW-620 colon = test system: SW-620 colon
BT-549 breast = test system: BT-549 breast
COLO 205 colon = test system: COLO 205 colon
SK-MEL-2 melanoma = test system: SK-MEL-2 melanoma
HT29 colon = test system: HT29 colon
A549 NSCLC = test system: A549 NSCLC
MOLT-4 leukemia = test system: MOLT-4 leukemia
SK-MEL-5 melanoma = test system: SK-MEL-5 melanoma
NCI-H460 lung = test system: NCI-H460 lung
HCC-2998 colon = test system: HCC-2998 colon
CAKI-1 renal = test system: CAKI-1 renal
OVCAR-3 ovarian = test system: OVCAR-3 ovarian
MCF7 breast = test system: MCF7 breast
RPMI-8226 leukemia = test system: RPMI-8226 leukemia
LOX IMVI melanoma = test system: LOX IMVI melanoma
A498 renal = test system: A498 renal
HOP-92 NSCLC = test system: HOP-92 NSCLC
KM12 colon = test system: KM12 colon
786-0 renal = test system: 786-0 renal
SK-OV-3 ovarian = test system: SK-OV-3 ovarian
HOP-62 NSCLC = test system: HOP-62 NSCLC
M14 melanoma = test system: M14 melanoma
SNB-75 CNS = test system: SNB-75 CNS
SK-MEL-28 melanoma = test system: SK-MEL-28 melanoma

With O=c1[nH]nc(-c2ccccc2)n1/N=C/c1ccccc1O the TGI (DU-145 prostate) was > 100 µM, the TGI (IGROV1 ovarian) was > 100 µM and the TGI (OVCAR-5 ovarian) was > 100 µM. The TGI (NCI/ADR-RES ovarian) was > 100 µM, the TGI (NCI-H226 lung) was > 100 µM and the TGI (NCI-H522 lung) was > 100 µM. For the same compound, the TGI (HCT-116 colon) was > 100 µM, the TGI (UACC-257 melanoma) was > 100 µM and the TGI (EKVX NSCLC) was > 100 µM. The TGI (MALME-3M melanoma) was > 100 µM, the TGI (UACC-62 melanoma) was > 100 µM and the TGI (U251 CNS) was > 100 µM. The TGI (SF-268 CNS) was > 100 µM, the TGI (SF-295 CNS) was > 100 µM and the TGI (SF-539 CNS) was > 100 µM. For the same compound, the TGI (K-562 leukemia) was > 100 µM, the TGI (TK-10 renal) was > 100 µM and the TGI (NCI-H23 lung) was > 100 µM. For the same compound, the TGI (PC-3 prostate) was > 100 µM, the TGI (OVCAR-4 ovarian) was > 100 µM and the TGI (MDA-N) was > 100 µM. The TGI (T-47D breast) was > 100 µM, the TGI (SNB-19 CNS) was > 100 µM and the TGI (OVCAR-8 ovarian) was > 100 µM. For the same compound, the TGI (RXF 393 renal) was > 100 µM, the TGI (SN12C renal) was > 100 µM and the TGI (MDA-MB-231 breast) was > 100 µM. The TGI (SR leukemia) was > 100 µM, the TGI (MDA-MB-435) was > 100 µM and the TGI (HCT-15 colon) was > 100 µM. The TGI (HS 578T breast) was 96.2 µM, the TGI (ACHN renal) was > 100 µM and the TGI (UO-31 renal) was > 100 µM. For the same compound, the TGI (SW-620 colon) was > 100 µM, the TGI (BT-549 breast) was > 100 µM and the TGI (COLO 205 colon) was > 100 µM. The TGI (SK-MEL-2 melanoma) was > 100 µM, the TGI (HT29 colon) was > 100 µM and the TGI (A549 NSCLC) was > 100 µM. For the same compound, the TGI (MOLT-4 leukemia) was > 100 µM, the TGI (SK-MEL-5 melanoma) was > 100 µM and the TGI (NCI-H460 lung) was > 100 µM. The TGI (HCC-2998 colon) was > 100 µM, the TGI (CAKI-1 renal) was > 100 µM and the TGI (OVCAR-3 ovarian) was > 100 µM. For the same compound, the TGI (MCF7 breast) was > 100 µM, the TGI (RPMI-8226 leukemia) was > 100 µM and the TGI (LOX IMVI melanoma) was > 100 µM. For the same compound, the TGI (A498 renal) was > 100 µM, the TGI (HOP-92 NSCLC) was > 100 µM and the TGI (KM12 colon) was > 100 µM. For the same compound, the TGI (786-0 renal) was > 100 µM and the TGI (SK-OV-3 ovarian) was 53.9 µM.
COc1ccc(/C=C2\C[C@H]3[C@@H]4CCC5=C/C(=N/O)CC[C@]5(C)[C@H]4CC[C@]3(C)\C2=N\O)cc1 was tested, and the TGI (DU-145 prostate) was > 100 µM, the TGI (IGROV1 ovarian) was > 100 µM and the TGI (OVCAR-5 ovarian) was > 100 µM. For the same compound, the TGI (NCI/ADR-RES ovarian) was > 100 µM, the TGI (NCI-H226 lung) was 95.4 µM and the TGI (NCI-H522 lung) was 91.7 µM. For the same compound, the TGI (HCT-116 colon) was > 100 µM, the TGI (UACC-257 melanoma) was > 100 µM and the TGI (EKVX NSCLC) was > 100 µM. The TGI (MALME-3M melanoma) was > 100 µM, the TGI (UACC-62 melanoma) was > 100 µM and the TGI (U251 CNS) was > 100 µM. The TGI (SF-268 CNS) was > 100 µM, the TGI (SF-295 CNS) was > 100 µM and the TGI (K-562 leukemia) was > 100 µM. For the same compound, the TGI (TK-10 renal) was > 100 µM, the TGI (NCI-H23 lung) was > 100 µM and the TGI (PC-3 prostate) was > 100 µM. For the same compound, the TGI (OVCAR-4 ovarian) was > 100 µM, the TGI (MDA-N) was > 100 µM and the TGI (T-47D breast) was > 100 µM. The TGI (SNB-19 CNS) was > 100 µM, the TGI (OVCAR-8 ovarian) was > 100 µM and the TGI (RXF 393 renal) was 98.8 µM. The TGI (SN12C renal) was > 100 µM, the TGI (MDA-MB-231 breast) was > 100 µM and the TGI (SR leukemia) was 86 µM. For the same compound, the TGI (MDA-MB-435) was > 100 µM, the TGI (HCT-15 colon) was > 100 µM and the TGI (HS 578T breast) was > 100 µM. The TGI (ACHN renal) was 98.3 µM, the TGI (UO-31 renal) was 57.5 µM and the TGI (SW-620 colon) was > 100 µM. For the same compound, the TGI (BT-549 breast) was 53.7 µM, the TGI (HOP-62 NSCLC) was > 100 µM and the TGI (COLO 205 colon) was 43.9 µM. For the same compound, the TGI (SK-MEL-2 melanoma) was 72.4 µM, the TGI (HT29 colon) was 45.3 µM and the TGI (A549 NSCLC) was > 100 µM. For the same compound, the TGI (MOLT-4 leukemia) was > 100 µM, the TGI (SK-MEL-5 melanoma) was 25.9 µM and the TGI (NCI-H460 lung) was > 100 µM. For the same compound, the TGI (HCC-2998 colon) was 49.7 µM, the TGI (CAKI-1 renal) was > 100 µM and the TGI (OVCAR-3 ovarian) was > 100 µM. For the same compound, the TGI (MCF7 breast) was 88.5 µM, the TGI (RPMI-8226 leukemia) was 93.5 µM and the TGI (LOX IMVI melanoma) was > 100 µM. The TGI (HOP-92 NSCLC) was > 100 µM, the TGI (KM12 colon) was > 100 µM and the TGI (M14 melanoma) was 57.7 µM. For the same compound, the TGI (SNB-75 CNS) was > 100 µM, the TGI (SK-MEL-28 melanoma) was > 100 µM and the TGI (786-0 renal) was > 100 µM. For the same compound, the TGI (SK-OV-3 ovarian) was > 100 µM.
